For assay [1], the system named is rabbit platelet aggregation caused by PAF. Put plainly: Inhibition of PAF-induced platelet aggregation in vitro test. To be noted: rabbit PRP; for Specific activity relative to the activity of the compound of Example 1: inhibition of PAF-induced aggregation, compound of Example 1 = 1. It counts as cell-based, rabbit (Japanese white crossbred male). The procedure:
The inhibition of PAF-induced platelet aggregation was examined by use of a platelet-rich plasma [PRP] of a rabbit according to the method of Mustard et al. [J. F. Mustard et al., J. Lab. Clin. Med., 64, 548 (1964)], which is an improved version of the method of Born [G. V. R. Born, J. Physiol., London, 162, 67 (1962)]. Thus, 80 to 100 ml of blood per animal was collected from the carotid artery of a Japanese white crossbred male rabbit without anesthesia into a polyethylene vessel in which 1/10 the volume of a 3.8% sodium citrate solution had been placed beforehand. A portion (about 3 ml) of the blood thus collected was subjected to high speed centrifugation (11,000 rpm, 60 seconds) to obtain a platelet-poor plasma (PPP) as supernatant. The remainder of the blood was subjected to low speed centrifugation (1,000 rpm, 10 minutes) to obtain a platelet-richplasma (PRP) as supernatant.
The platelet aggregation was evaluated by nephelometry, the determination being made with PRP stirred at 1,000 rpm at 37° C. by use of an aggregater (Hematracer, Niko Bioscience Co.). The platelet aggregation activity was expressed in terms of the percent of light transmission, that of PRP being taken as 0% and that of PPP being taken as 100%. A 0.2 ml portion of PRP was placed in a glass cuvette containing a silicone-treatediron stirring rod, and 2 μl of dimethyl sulfoxide was added thereto. After 2 minutes, a PAF solution in 0.25% BSA physiological saline was added thereto to give a final concentration of PAF of […] and the maximum aggregation was determined. To examine the inhibitory activity of test compounds for the platelet aggregation caused by PAF, 2 μl of a test compound dissolved in dimethyl sulfoxide was added in place of dimethyl sulfoxide described above. The PAF inhibitory rate of a test compound was calculated according to the following equation: [formula]

Assay [2] has as its system platelet aggregation caused by PAF. Put plainly: Inhibition of platelet aggregation, outside-living-body test (rabbit, intravenous). The format is in vivo. The conditions noted are these: Oryctolagus cuniculus, EC50 is of PAF, higher = more inhibition, read-out: EC50 value (PAF concentration necessary for causing an aggregation corresponding to 50% of the maximum PAF reaction). On the procedure:
(§1) The test compound was intravenously administered (30 mg/kg) to a rabbit or orally administered (50 mg/kg) to a guinea pig. Blood samples were collected, and the extent of platelet aggregation caused by 10^-12 -10^-6 M of PAF was examined. The numerical values in the Table show the PAF concentrations (EC50 nM) necessary for causing an aggregation corresponding to 50% of the maximum PAF reaction.

For assay [3] the test system is unchanged. Put plainly: Inhibition of platelet aggregation, outside-living-body test (guinea pig, oral). It counts as in vivo. To be noted: Cavia porcellus, EC50 is of PAF, higher = more inhibition, read-out: EC50 value (PAF concentration necessary for causing an aggregation corresponding to 50% of the maximum PAF reaction). The procedure: as §1

Data on twelve molecules can be found in US4849434A, “Novel thiazolidin-4-one derivatives and acid addition salts therof” (Sumitomo Pharmaceuticals Company, Limited, priority 1986, dated 1989).

Values after ≈ are worked out from the molar mass of the structure shown. Like-named read-outs stand apart in the source and are kept apart here.

`C=CCN1C(=O)C(c2ccc(Cl)cc2)SC1c1cccnc1` (single isomer, unassigned) [Example 17]: the “Specific activity relative to the activity of the compound of Example 1” value in assay [1] is listed as 1.0.
In the case of `C#CCN1C(=O)C(c2ccc(Cl)cc2)SC1c1cccnc1` (single isomer, unassigned) [Example 19], the “Specific activity relative to the activity of the compound of Example 1” value in assay [1] stood at 1.2.
Same read-out and setting: as for `COc1ccc(CCN2C(=O)C(c3ccc(Cl)cc3)SC2c2cccnc2)cc1OC` (single isomer, unassigned) [Example 21], the figure is 2.2; as for `CC(=O)OCCN1C(=O)C(c2ccc(Cl)cc2)SC1c1cccnc1` (single isomer, unassigned) [Example 32], 1.8.
In assay [1] (Oryctolagus cuniculus, Platelet, PAF-induced aggregation), `CN1C(=O)C(c2ccc(Cl)cc2)SC1c1cccnc1` (stereo not shown) [Example 1, 5-(4-chlorophenyl)-3-methyl-2-(3-pyridyl)thiazolidin-4-one] registered an IC50 of 5 µg/mL (≈ 16.4 µM). Further, the EC50 at 30 mg/kg in assay [2] (0 hr after administration) was found to be 6.2 nM; in assay [2] (0.5 hr after administration) it was 26 nM; in assay [2] (1 hr after administration) it was 20 nM; in assay [2] (2 hr after administration), 16 nM; in assay [2] (4 hr after administration), 14 nM. In addition, the EC50 at 50 mg/kg in assay [3] (0 hr after administration) came out at 0.23 nM; in assay [3] (0.5 hr after administration) it was 10 nM; in assay [3] (1 hr after administration) it was 17 nM; in assay [3] (2 hr after administration) it was 3 nM; in assay [3] (4 hr after administration), 1 nM.
For the molecule `CN1C(=O)C(c2ccc(F)cc2)SC1c1cccnc1` (stereo not shown) [Example 4], the “Specific activity relative to the activity of the compound of Example 1” value in assay [1] is on record as 1.3.
Same read-out and setting: as for `CN1C(=O)C(c2cccc3ccccc23)SC1c1cccnc1` (stereo not shown) [Example 5], the figure is 0.9.
As for `COc1ccc(C2SC(c3cccnc3)N(C)C2=O)cc1OC` (stereo not shown) [Example 11], in assay [1], the “Specific activity relative to the activity of the compound of Example 1” value is on record as 0.7.
Same read-out and setting: as for `CN1C(=O)C(c2c(Cl)cccc2Cl)SC1c1cccnc1` (stereo not shown) [Example 13], the figure is 2.3; as for `CN1C(=O)C(c2ccccc2)SC1c1cccnc1` (stereo not shown) [Example 14], 1.4; as for `CCN1C(=O)C(c2ccc(Cl)cc2)SC1c1cccnc1` (stereo not shown) [Example 15], 0.5.
Same read-out and setting: as for `O=C1C(c2ccc(Cl)cc2)SC(c2cccnc2)N1CCCO` (stereo not shown) [Example 27], the figure is 0.6.
